Results taken from DBAASP.
Converted amounts (≈) assume the structure as drawn.

Experiments:
Experiment in all cases: ≥ marks a high value that may be exact or a test limit, other limits are often not marked, values filed in µg/mL are converted to µM
[1] = system: Staphylococcus aureus RF122
[2] = system: Cronobacter muytjensii ATCC 51329
[3] = system: Staphylococcus aureus NCTC 8325-4
[4] = system: Klebsiella pneumoniae NCIMB 13218
[5] = system: Cronobacter sakazakii DPC 6440
[6] = system: Staphylococcus aureus SA113
[7] = system: Salmonella enterica subsp. enterica serovar Typhimurium LT2
[8] = system: Staphylococcus aureus RN4220
[9] = system: Staphylococcus aureus Newman
[10] = system: Escherichia coli NCIMB 11843
[11] = system: Cronobacter sakazakii ATCC BAA-894
[12] = system: Cronobacter sakazakii DSM 4485
[13] = system: Pseudomonas fluorescens NCIMB 9046
[14] = system: Pseudomonas aeruginosa ATCC 27853
[15] = system: Escherichia coli ATCC 25922
[16] = system: Staphylococcus aureus ATCC 29213
[17] = system: Staphylococcus aureus ATCC 700699
[18] = system: Staphylococcus aureus ATCC 33591
[19] = system: Klebsiella pneumoniae ATCC 700603
[20] = system: Staphylococcus aureus ATCC 25923
[21] = system: Pseudomonas aeruginosa ATCC 9027
[22] = system: Bacillus cereus ATCC 11778
[23] = system: Escherichia coli ATCC 35218
[24] = system: Pseudomonas putida ATCC 17426
[25] = system: Salmonella enterica subsp. enterica serovar Enteritidis ATCC 13076
[26] = system: Escherichia coli ATCC 27325
[27] = system: Staphylococcus aureus ATCC 15752
[28] = system: Candida albicans ATCC 10231
[29] = system: Bacillus subtilis ATCC 62037
[30] = system: Saccharomyces cerevisiae ATCC 44774
[31] = system: Streptococcus mutans ATCC 25175
[32] = system: Nocardia asteroides 201118
[33] = system: Candida glabrata 090902
[34] = system: Psychrobacter faecalis X29
[35] = system: Enterococcus faecalis 981
[36] = system: Acinetobacter baumannii ATCC BAA-1605
[37] = system: Enterococcus faecium ATCC 700221
[38] = system: Cryptococcus neoformans ATCC 34881

Q: What does the source list for `CC(C)C[C@H](NC(=O)[C@H](CC(N)=O)NC(=O)[C@H](CCC(=O)O)NC(=O)[C@H](CC(N)=O)NC(=O)[C@H](CC(C)C)NC(=O)[C@@H](N)C(C)C)C(=O)N[C@@H](C)C(=O)N[C@@H](C)C(=O)O` [VLNENLAA]?
A: MIC [1]: ≥ 156 µM; MIC [2]: ≥ 2500 µM; MIC [3]: ≥ 2500 µM; MIC [4]: ≥ 2500 µM; MIC [5]: ≥ 1250 µM; MIC [6]: ≥ 1250 µM; MIC [7]: ≥ 2500 µM; MIC [8]: ≥ 312 µM; MIC [9]: ≥ 1250 µM; MIC [10]: ≥ 2500 µM; MIC [11]: ≥ 1250 µM; MIC [12]: ≥ 312 µM; MIC [13]: ≥ 2500 µM; MIC [14]: 64 µM (≈ 53.9 µg/mL)

Q: What does the source list for `CC[C@H](C)[C@H](NC(=O)[C@H](CC(=O)O)NC(=O)[C@H](CCCCN)NC(=O)[C@H](C)NC(=O)[C@H](C)NC(=O)CNC(=O)[C@H](CCCCN)NC(=O)[C@H](CC(C)C)NC(=O)[C@@H](NC(=O)[C@H](CC(=O)O)NC(=O)[C@@H](NC(=O)[C@@H](NC(=O)CN)C(C)C)C(C)C)[C@@H](C)CC)C(=O)N[C@@H](C)C(=O)NCC(=O)N[C@@H](C)C(=O)N[C@@H](CC(C)C)C(=O)N[C@@H](C)C(=O)N[C@@H](CO)C(=O)N[C@@H](CCCCN)C(=O)N[C@H](C(=O)N[C@@H](CCSC)C(=O)N[C@@H](CC(N)=O)C(=O)N[C@@H](CCCCN)C(=O)N[C@@H](CC(C)C)C(N)=O)C(C)C` [GVVDILKGAAKDIAGALASKVMNKL]?
A: MIC [15]: 100 µM (≈ 248 µg/mL); MIC [16]: > 100 µM; MIC [17]: ≥ 100 µM; MIC [18]: ≥ 100 µM; MIC [19]: 100 µM (≈ 248 µg/mL); MIC [14]: > 100 µM

Q: `CC[C@H](C)[C@H](NC(=O)[C@H](CC(=O)O)NC(=O)[C@H](CCCCN)NC(=O)[C@H](C)NC(=O)[C@H](C)NC(=O)CNC(=O)[C@H](CCCCN)NC(=O)[C@H](CC(C)C)NC(=O)[C@@H](NC(=O)[C@H](CC(=O)O)NC(=O)[C@H](C)NC(=O)[C@@H](NC(=O)CN)C(C)C)[C@@H](C)CC)C(=O)N[C@@H](C)C(=O)NCC(=O)N[C@@H](Cc1cnc[nH]1)C(=O)N[C@@H](CC(C)C)C(=O)N[C@@H](C)C(=O)N[C@@H](CO)C(=O)N[C@@H](CCCCN)C(=O)N[C@H](C(=O)N[C@@H](CCSC)C(=O)N[C@@H](CC(N)=O)C(=O)N[C@@H](CCCCN)C(=O)N[C@@H](CC(C)C)C(N)=O)C(C)C` [GVADILKGAAKDIAGHLASKVMNKL] was tested. Which MIC [15] did it give?
A: The MIC was > 100 µM.

Q: What about the MIC [16] of the same compound?
A: The MIC was > 100 µM.

Q: And the MIC [17]?
A: The MIC was ≥ 100 µM.

Q: What about the MIC [18] of the same compound?
A: The MIC was ≥ 100 µM.

Q: And the MIC [19]?
A: The MIC was 100 µM (≈ 252 µg/mL).

Q: What about the MIC [14] of the same compound?
A: The MIC was > 100 µM.

Q: For `CC(C)C[C@H](NC(=O)[C@@H](NC(=O)[C@@H](N)CCCCN)C(C)C)C(=O)N[C@@H](CCCCN)C(=O)N[C@@H](C)C(=O)N[C@@H](C)C(=O)N[C@@H](C)C(N)=O` [KVLKAAA], which MIC [20] is on record?
A: Its MIC is > 50 µM.

Q: And the MIC [21]?
A: Its MIC is > 50 µM.

Q: What about the MIC [22] of the same compound?
A: The MIC was ≥ 50 µM.

Q: What about the MIC [23] of the same compound?
A: The MIC was ≥ 50 µM.

Q: How did the MIC [24] turn out when `CC[C@H](C)[C@H](NC(=O)[C@@H]1CCCN1C(=O)[C@H](Cc1c[nH]c2ccccc12)NC(=O)[C@H](CCC(N)=O)NC(=O)[C@H](CCCN=C(N)N)NC(=O)[C@@H](NC(=O)[C@@H](NC(=O)[C@@H](N)CCCN=C(N)N)C(C)C)C(C)C)C(=O)NCC(=O)N[C@@H](CCCN=C(N)N)C(=O)N[C@H](C(=O)N[C@H](C(=O)N[C@@H](CCCN=C(N)N)C(=O)N[C@@H](CCCN=C(N)N)C(=O)N[C@H](C(=O)N[C@H](C(=O)N[C@@H](CCCN=C(N)N)C(=O)N[C@@H](CCCN=C(N)N)C(=O)N[C@H](C(=O)N[C@H](C(=O)N[C@@H](CCCN=C(N)N)C(=O)N[C@@H](Cc1ccccc1)C(=O)O)C(C)C)C(C)C)C(C)C)C(C)C)C(C)C)C(C)C` [RVVRQWPIGRVVRRVVRRVVRF] was run?
A: The MIC was 1.43 µM (≈ 4 µg/mL).

Q: And the MIC [25]?
A: The MIC was 0.717 µM (≈ 2 µg/mL).

Q: What about the MIC [26] of the same compound?
A: The MIC was 1.43 µM (≈ 4 µg/mL).

Q: What about the MIC [27] of the same compound?
A: The MIC was 0.717 µM (≈ 2 µg/mL).

Q: And the MIC [28]?
A: Its MIC is 0.179 µM (≈ 0.5 µg/mL).

Q: What about the MIC [29] of the same compound?
A: The MIC was 0.717 µM (≈ 2 µg/mL).

Q: What about the MIC [30] of the same compound?
A: The MIC was 0.179 µM (≈ 0.5 µg/mL).

Q: And the MIC [31]?
A: Its MIC is 0.717 µM (≈ 2 µg/mL).

Q: Which results are given for `CC[C@H](C)[C@@H]1NC(=O)[C@H](CCC(=O)O)NC(=O)[C@@H](NC(=O)[C@@H](NC(=O)[C@@H](NC(=O)[C@H](CCCCN)NC(=O)[C@@H]2CCCN2C(=O)[C@H](CC(C)C)NC(=O)[C@H](Cc2ccccc2)NC(=O)[C@H](CC(C)C)NC(=O)[C@@H]2CCCN2C(=O)[C@H](CC(C)C)NC(=O)[C@@H](N)Cc2ccccc2)[C@@H](C)CC)[C@@H](C)CC)CSSC[C@@H](C(=O)O)NC(=O)[C@H](CCCCN)NC(=O)[C@H](CCCCN)NC(=O)[C@H]([C@@H](C)O)NC1=O` [FLPLFLPKIICEITKKC]?
A: MIC [32]: 25 µM (≈ 50.1 µg/mL); MIC [33]: 25 µM (≈ 50.1 µg/mL); MIC [20]: 100 µM (≈ 200 µg/mL); MIC [34]: ≥ 50 µM; MIC [35]: ≥ 50 µM

Q: With `CC[C@H](C)[C@H](N)C(=O)N[C@@H](CCCCN)C(=O)N[C@@H](CCC(N)=O)C(=O)NCC(=O)N[C@@H](CC(C)C)C(=O)N1CCC[C@H]1C(=O)N[C@@H](CCC(N)=O)C(=O)N[C@@H](CCC(=O)O)C(=O)O` [IKQGLPQE] as the compound, how does the MIC [1] read?
A: Its MIC is ≥ 2500 µM.

Q: What about the MIC [2] of the same compound?
A: Its MIC is ≥ 2500 µM.

Q: What about the MIC [3] of the same compound?
A: Its MIC is ≥ 2500 µM.

Q: And the MIC [4]?
A: Its MIC is ≥ 2500 µM.

Q: What about the MIC [5] of the same compound?
A: Its MIC is ≥ 2500 µM.

Q: What about the MIC [6] of the same compound?
A: The MIC was ≥ 2500 µM.

Q: What about the MIC [7] of the same compound?
A: Its MIC is ≥ 2500 µM.

Q: And the MIC [8]?
A: Its MIC is ≥ 2500 µM.

Q: And the MIC [9]?
A: The MIC was ≥ 2500 µM.

Q: What about the MIC [10] of the same compound?
A: The MIC was ≥ 2500 µM.

Q: What about the MIC [11] of the same compound?
A: Its MIC is ≥ 2500 µM.

Q: And the MIC [12]?
A: Its MIC is ≥ 2500 µM.

Q: What about the MIC [13] of the same compound?
A: Its MIC is ≥ 2500 µM.

Q: `CC[C@H](C)[C@H](NC(=O)[C@H](CCCCN)NC(=O)[C@H](CCCCN)NC(=O)[C@H](Cc1ccccc1)NC(=O)[C@H](CC(C)C)NC(=O)[C@H](CCCN=C(N)N)NC(=O)[C@@H](N)CCCN=C(N)N)C(=O)N[C@@H](CC(C)C)C(=O)N[C@@H](CCCCN)C(=O)N[C@@H](Cc1ccc(O)cc1)C(=O)N[C@@H](CC(C)C)C(N)=O` [RRLFKKILKYL] was tested. Which MIC [36] did it give?
A: Its MIC is 3.04 µM (≈ 4.5 µg/mL).

Q: And the MIC [15]?
A: The MIC was 23.3 µM (≈ 34.5 µg/mL).

Q: What about the MIC [37] of the same compound?
A: The MIC was 11.5 µM (≈ 17 µg/mL).

Q: What about the MIC [18] of the same compound?
A: The MIC was 23.3 µM (≈ 34.5 µg/mL).

Q: And the MIC [19]?
A: The MIC was 11.5 µM (≈ 17 µg/mL).

Q: And the MIC [14]?
A: The MIC was 11.5 µM (≈ 17 µg/mL).

Q: Which MIC [24] does the source give for `CC(C)[C@H](NC(=O)[C@H](CCCCN)NC(=O)CNC(=O)CNC(=O)[C@H](CCC(N)=O)NC(=O)[C@H](CCCCN)NC(=O)CNC(=O)[C@H](CCCN=C(N)N)NC(=O)CNC(=O)[C@@H](N)CO)C(=O)N[C@@H](CCCN=C(N)N)C(=O)N[C@@H](C)C(=O)N[C@@H](CCCCN)C(=O)N[C@@H](C)C(=O)N[C@@H](CCCCN)C(=O)N[C@H](C(=O)N[C@@H](CCCN=C(N)N)C(=O)N[C@@H](CO)C(=O)N[C@@H](CO)C(=O)O)[C@@H](C)O` [SGRGKQGGKVRAKAKTRSS] here?
A: Its MIC is 8.17 µM (≈ 16 µg/mL).

Q: And the MIC [25]?
A: Its MIC is 16.3 µM (≈ 32 µg/mL).

Q: What about the MIC [38] of the same compound?
A: The MIC was 2.04 µM (≈ 4 µg/mL).

Q: What about the MIC [26] of the same compound?
A: The MIC was 4.08 µM (≈ 8 µg/mL).

Q: And the MIC [27]?
A: The MIC was 8.17 µM (≈ 16 µg/mL).

Q: And the MIC [28]?
A: Its MIC is 16.3 µM (≈ 32 µg/mL).

Q: What about the MIC [29] of the same compound?
A: Its MIC is 2.04 µM (≈ 4 µg/mL).

Q: What about the MIC [30] of the same compound?
A: The MIC was 8.17 µM (≈ 16 µg/mL).

Q: And the MIC [31]?
A: The MIC was 16.3 µM (≈ 32 µg/mL).
